≈ marks a conversion by molar mass, not a printed value.
Assay: Water solubility of monomer building blocks (Tables 1 and 2)
Assay type: physicochemical
Conditions: for solubility: water

O=C(O)c1ccc(O)cc1 [4-hydroxy benzoic acid]
solubility (Table 2, unit inferred): 8000 µg/mL (≈ 57.9 mM)

O=C(O)CCc1ccc(O)cc1 [DAT]
solubility (Table 2, unit inferred): 1630 µg/mL (≈ 9.81 mM)

NC(C(=O)O)c1ccc(O)cc1 (centres unmarked) [Hydroxyphenyl glycine]
solubility: 5000 µg/mL (≈ 29.9 mM)

O=C(O)CCCC(=O)O [Glutaric acid]
solubility (Table 2, unit inferred): 640000 µg/mL (≈ 4840 mM)

O=C(O)COCC(=O)O [Diglycolic acid]
Water Solubility (Table 2, unit not given): Water soluble

Source: US8927659B2, “Resorbable phenolic polymers” (TYRX, Inc., priority 2005, dated 2015)
